Data set [1] in a line: Binding affinity to Bacillus substilis 5'-32p-labelled 165 nucleotide RNA assessed as reduction in RNA cleavage measured within 40 hrs by PAGE analysis. Also on record: species or system Bacillus subtilis. To be noted: read-out: Kd(app).
A further data set has as its system YybT. Nature of the data set: Drug metabolism assessed as recombinant Bacillus subtilis YybT-mediated compound hydrolysis by measuring half life at 100 uM by reversed-phase HPLC method. The data set is classed as ADME. To be noted: recombinant Bacillus subtilis YybT enzyme.
Data set [2] in a line: Drug metabolism assessed as recombinant Bacillus subtilis YybT-mediated compound degradation by measuring retention time at 100 uM by reversed-phase HPLC analysis. The format is ADME.
The nature of data set [3]: Drug metabolism assessed as recombinant Bacillus subtilis YybT-mediated ((2R,3S,4R,5R)-5-(6-amino-9H-purin-9-yl)-3-((((2R,3S,4R,5R)-5-(6-amino-9H-purin-9-yl)-3,4-dihydroxytetrahydrothiophen-2-yl)methoxy)(hydroxy)phosphoryloxy)-4-hydroxytetrahydrothiophen-2-yl)methyl dihydrogen phosphate formation at 100 uM by LRMS analysis. The format is ADME.
Data set [4] is described as follows: Drug level treated with c-di-4'-thioAMP assessed as recombinant Bacillus subtilis YybT-mediated metabolite formation at 100 uM by LRMS analysis. The format is ADME.

In general, half-life refers to the time needed for the level to fall by half in the phase considered. For `Nc1ncnc2c1ncn2[C@@H]1O[C@@H]2CO[P@@](=O)(O)O[C@H]3[C@@H](O)[C@H](n4cnc5c(N)ncnc54)O[C@@H]3CO[P@@](=O)(O)O[C@H]2[C@H]1O`, the Kd in data set [1] was ≤ 0.0033 µM. Also, in the data set on YybT, the half-life at 100 µM was 1 h.
As to `Nc1ncnc2c1ncn2[C@@H]1S[C@@H]2COP(=O)(O)O[C@H]3[C@@H](O)[C@H](n4cnc5c(N)ncnc54)S[C@@H]3COP(=O)(O)O[C@H]2[C@H]1O`, in data set [1], the Kd turned out to be 34.8 µM. For the same compound, in data set [2], the Retention_time was 12.3 min. Moreover, the Drug metabolism result in data set [3] was “Metabolite_Detected”. Moreover, the half-life at 100 µM in the data set on YybT was > 12 h.
Regarding `Nc1ncnc2c1ncn2[C@@H]1S[C@H](COP(=O)(O)O[C@H]2[C@@H](O)[C@H](n3cnc4c(N)ncnc43)S[C@@H]2COP(=O)(O)O)[C@@H](O)[C@H]1O`, in data set [4], the Drug metabolism entry is recorded as “Metabolite_Detected”.

Values taken from ChEMBL document CHEMBL4052648, “Synthesis and evaluation of c-di-4'-thioAMP as an artificial ligand for c-di-AMP riboswitch” (Bioorg Med Chem, 2017).
